In patent US8431702B2, “Therapeutically useful substituted hydropyrido [3,2,1-ij] quinoline compounds” (Allergan, Inc., priority 2008, dated 2013):
Like-named read-outs stand apart in the source and are kept apart here.

Biological target: T1, human S1P3 receptor (Homo sapiens, UniProt Q99500)
T1 construct: expressed in transfected cells
Experiment: FLIPR calcium (Fluo-4) assay for activation or block of activation of human S1P3 receptor in T24 cells
Type: cell-based
Procedure: The compounds of the invention are assessed for their ability to activate or block activation of the human S1P3 receptor in T24 cells stably expressing the human S1P3 receptor using the method described in paragraph [0067] of United States Patent Application Publication No. 20070232682, which published on Oct. 4, 2007, which is hereby incorporated by reference in its entirety.
Ten thousands cells/well are plated into 384-well poly-D-lysine coated plates one day prior to use. The growth media for the S1P3 receptor expressing cell line is McCoy's 5A medium supplemented with 10% charcoal-treated fetal bovine serum (FBS), 1% antibiotic-antimycotic and 400 μg/ml geneticin. On the day of the experiment, the cells are washed twice with Hank's Balanced Salt Solution supplemented with 20 mM HEPES (HBSS/Hepes buffer). The cells are then dye loaded with 2 μM Fluo-4 diluted in the HBSS/Hepes buffer with 1.25 mM Probenecid and incubated at 37° C. for 40 minutes. Extracellular dye is removed by washing the cell plates four times prior to placing the plates in the FLIPR (Fluorometric Imaging Plate Reader, Molecular Devices). Ligands are diluted in HBSS/Hepes buffer and prepared in 384-well microplates. The positive control, Sphingosine-1-phosphate (S1P), is diluted in HBSS/Hepes buffer with 4 mg/ml fatty acid free bovine serum albumin. The FLIPR transfers 12.5 μl from the ligand microplate to the cell plate and takes fluorescent measurements for 75 seconds, taking readings every second, and then for 2.5 minutes, taking readings every 10 seconds. Compounds are tested over the concentration range of 0.61 nM to 10,000 nM. Data for calcium ion (Ca^+2) responses are obtained in arbitrary fluorescence units and not translated into Ca^+2 concentrations. IC50 values (nM) are determined through a […] analysis using the Levenburg Marquardt algorithm.

[1] = T24 cells stably expressing the human S1P3 receptor, tested over 0.61 nM to 10,000 nM
[2] = T24 cells stably expressing the human S1P3 receptor, tested over 0.61 nM to 10,000 nM, read-out: S1P3 IC50

T1 sequence (Q99500 whole entry): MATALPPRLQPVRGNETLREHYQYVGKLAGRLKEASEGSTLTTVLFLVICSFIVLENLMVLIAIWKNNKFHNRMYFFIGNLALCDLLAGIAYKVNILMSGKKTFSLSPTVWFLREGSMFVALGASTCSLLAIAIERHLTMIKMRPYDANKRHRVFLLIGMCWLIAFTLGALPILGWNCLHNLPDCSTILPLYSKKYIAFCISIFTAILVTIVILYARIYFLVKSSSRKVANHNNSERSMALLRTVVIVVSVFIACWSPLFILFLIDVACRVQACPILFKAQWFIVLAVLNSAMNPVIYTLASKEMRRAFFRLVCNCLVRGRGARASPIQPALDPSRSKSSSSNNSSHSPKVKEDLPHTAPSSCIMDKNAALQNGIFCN

Compound	S1P3 % Inhibition [1] [%]	IC50 [2] [nM]	IC50 [nM]
CCCCCNC(=O)Nc1cc2c3c(c1)C(c1ccccc1)CCN3CCC2c1ccccc1 (stereo not shown) [Compound 486, 1-(1,7-diphenyl-1,2,3,5,6,7-hexahydropyrido[3,2,1-ij]quinolin-9-yl)-3-pentylurea]	100	82	–
CCCSC(=O)Nc1cc2c3c(c1)[C@@](C)(c1ccccc1)CCN3CC[C@@]2(C)c1ccccc1 [Compound 584, S-propyl (1R,7S)-1,7-dimethyl-1,7-diphenyl-1,2,3,5,6,7-hexahydropyrido[3,2,1-ij]quinolin-9-ylcarbamothioate]	98	–	16
CN(C)C(=O)Nc1cc2c3c(c1)C(c1ccccc1)CCN3CCC2c1ccccc1 (stereo not shown) [Compound 405, 3-(1,7-diphenyl-1,2,3,5,6,7-hexahydropyrido[3,2,1-ij]quinolin-9-yl)-1,1-dimethylurea]	98	–	–
CSC(=O)Nc1cc2c3c(c1)[C@](C)(c1ccccc1)CCN3CC[C@@]2(C)c1ccccc1 [Compound 583, S-methyl (1S,7S)-1,7-dimethyl-1,7-diphenyl-1,2,3,5,6,7-hexahydropyrido[3,2,1-ij]quinolin-9-ylcarbamothioate]	98	–	10
CCNC(=O)Nc1cc2c3c(c1)C(c1ccccc1)CCN3CCC2c1ccccc1 (stereo not shown) [Compound 484, 1-(1,7-diphenyl-1,2,3,5,6,7-hexahydropyrido[3,2,1-ij]quinolin-9-yl)-3-ethylurea]	101	–	–
CCOC(=O)Nc1cc2c3c(c1)C(c1ccccc1)CCN3CCC2c1ccccc1 (stereo not shown) [Compound 273, Ethyl 1,7-diphenyl-1,2,3,5,6,7-hexahydropyrido[3,2,1-ij]quinolin-9-ylcarbamate]	101	–	–
CSC(=O)Nc1cc2c3c(c1)[C@](C)(c1ccc(F)cc1)CCN3CC[C@@]2(C)c1ccc(F)cc1 [Compound 671, S-methyl (1S,7S)-1,7-bis(4-fluorophenyl)-1,7-dimethyl-1,2,3,5,6,7-hexahydropyrido[3,2,1-ij]quinolin-9-ylcarbamothioate]	97	–	25
O=C(Nc1cc2c3c(c1)C(c1ccccc1)CCN3CCC2c1ccccc1)N1CCOCC1 (stereo not shown) [Compound 983, N-(1,7-diphenyl-1,2,3,5,6,7-hexahydropyrido[3,2,1-ij]quinolin-9-yl)morpholine-4-carboxamide]	100	–	–
CCCCOC(=O)Nc1cc2c3c(c1)[C@](C)(c1ccccc1)CCN3CC[C@@]2(C)c1ccccc1 [Compound 943, Butyl (1S,7S)-1,7-dimethyl-1,7-diphenyl-1,2,3,5,6,7-hexahydropyrido[3,2,1-ij]quinolin-9-ylcarbamate]	100	–	75
O=C(Nc1cc2c3c(c1)C(c1ccccc1)CCN3CCC2c1ccccc1)OCCCCl (stereo not shown) [Compound 205, 3-chloropropyl 1,7-diphenyl-1,2,3,5,6,7-hexahydropyrido[3,2,1-ij]quinolin-9-ylcarbamate]	99	–	–
CC(C)(C)NC(=O)Nc1cc2c3c(c1)[C@@](C)(c1ccccc1)CCN3CC[C@@]2(C)c1ccccc1 [Compound 580, 1-t-butyl-3-((1R,7S)-1,7-dimethyl-1,7-diphenyl-1,2,3,5,6,7-hexahydropyrido[3,2,1-ij]quinolin-9-yl)urea]	99	–	62
O=C(NCc1ccoc1)Nc1cc2c3c(c1)C(c1ccccc1)CCN3CCC2c1ccccc1 (stereo not shown) [Compound 258, 1-(1,7-diphenyl-1,2,3,5,6,7-hexahydropyrido[3,2,1-ij]quinolin-9-yl)-3-(furan-3-ylmethyl)urea]	100	–	–
C[C@@]1(c2ccccc2)CCN2CC[C@@](C)(c3ccccc3)c3cc(NC(=O)OCCF)cc1c32 [Compound 944, 2-fluoroethyl (1S,7S)-1,7-dimethyl-1,7-diphenyl-1,2,3,5,6,7-hexahydropyrido[3,2,1-ij]quinolin-9-ylcarbamate]	100	–	27
CC(C)COC(=O)Nc1cc2c3c(c1)C(c1ccccc1)CCN3CCC2c1ccccc1 (stereo not shown) [Compound 274, Isobutyl 1,7-diphenyl-1,2,3,5,6,7-hexahydropyrido[3,2,1-ij]quinolin-9-ylcarbamate]	100	–	–
CCCNC(=S)Nc1cc2c3c(c1)C(c1ccccc1)CCN3CCC2c1ccccc1 (stereo not shown) [Compound 255, 1-(1,7-diphenyl-1,2,3,5,6,7-hexahydropyrido[3,2,1-ij]quinolin-9-yl)-3-propylthiourea]	99	–	–
CCOC(=O)Nc1cc2c3c(c1)C(c1cccc(F)c1)CCN3CCC2c1cccc(F)c1 (stereo not shown) [Compound 093, Ethyl 1,7-bis(3-fluorophenyl)-1,2,3,5,6,7-hexahydropyrido[3,2,1-ij]quinolin-9-ylcarbamate]	102	–	–

Compound	S1P3 % Inhibition [1] [%]	IC50 [2] [nM]	IC50 [nM]
CNC(=O)c1cc2c3c(c1)C(c1ccccc1)CCN3CCC2c1ccccc1 (stereo not shown) [Compound 775, N-methyl-1,7-diphenyl-1,2,3,5,6,7-hexahydropyrido[3,2,1-ij]quinoline-9-carboxamide]	100	619	–
C[C@@]1(c2ccccc2)CCN2CC[C@@](C)(c3ccccc3)c3cc(NC(=O)OCCCCl)cc1c32 [Compound 945, 3-chloropropyl (1S,7S)-1,7-dimethyl-1,7-diphenyl-1,2,3,5,6,7-hexahydropyrido[3,2,1-ij]quinolin-9-ylcarbamate]	100	–	68
O=C(Nc1cc2c3c(c1)C(c1ccc(F)cc1)CCN3CCC2c1ccc(F)cc1)OCCF (stereo not shown) [Compound 067]	98	8	–
CCCNC(=O)Nc1cc2c3c(c1)[C@](C)(c1ccccc1)CCN3CC[C@@]2(C)c1ccccc1 [Compound 250, 1-((1S,7S)-1,7-dimethyl-1,7-diphenyl-1,2,3,5,6,7-hexahydropyrido[3,2,1-ij]quinolin-9-yl)-3-propylurea]	100	523	–
C#CCOC(=O)Nc1cc2c3c(c1)C(c1ccccc1)CCN3CCC2c1ccccc1 (stereo not shown) [Compound 352, Prop-2-ynyl 1,7-diphenyl-1,2,3,5,6,7-hexahydropyrido[3,2,1-ij]quinolin-9-ylcarbamate]	97	–	–
CCCCNC(=O)Nc1cc2c3c(c1)C(c1ccccc1)CCN3CCC2c1ccccc1 (stereo not shown) [Compound 485, 1-Butyl-3-(1,7-diphenyl-1,2,3,5,6,7-hexahydropyrido[3,2,1-ij]quinolin-9-yl)urea]	100	–	–
COC(=O)Nc1cc2c3c(c1)C(c1ccccc1)CCN3CCC2c1ccccc1 (stereo not shown) [Compound 272, methyl 1,7-diphenyl-1,2,3,5,6,7-hexahydropyrido[3,2,1-ij]quinolin-9-ylcarbamate]	102	–	–
CSC(=O)Nc1cc2c3c(c1)[C@@](C)(c1ccccc1)CCN3CC[C@@]2(C)c1ccccc1 [Compound 582, S-methyl (1R,7S)-1,7-dimethyl-1,7-diphenyl-1,2,3,5,6,7-hexahydropyrido[3,2,1-ij]quinolin-9-ylcarbamothioate]	99	–	4
CC(C)(C)NC(=O)Nc1cc2c3c(c1)C(c1ccccc1)CCN3CCC2c1ccccc1 (stereo not shown) [Compound 148, 1-tert-butyl-3-(1,7-diphenyl-1,2,3,5,6,7-hexahydropyrido[3,2,1-ij]quinolin-9-yl)urea]	101	–	–
CCNC(=O)Nc1cc2c3c(c1)[C@](C)(c1ccccc1)CCN3CC[C@@]2(C)c1ccccc1 [Compound 249, 1-((1S,7S)-1,7-dimethyl-1,7-diphenyl-1,2,3,5,6,7-hexahydropyrido[3,2,1-ij]quinolin-9-yl)-3-ethylurea]	100	194	–
CCCOC(=O)Nc1cc2c3c(c1)C(c1cccc(F)c1)CCN3CCC2c1cccc(F)c1 (stereo not shown) [Compound 094, Propyl 1,7-bis(3-fluorophenyl)-1,2,3,5,6,7-hexahydropyrido[3,2,1-ij]quinolin-9-ylcarbamate]	101	–	–
CCCCOC(=O)Nc1cc2c3c(c1)C(c1cccc(F)c1)CCN3CCC2c1cccc(F)c1 (stereo not shown) [Compound 202, Butyl 1,7-bis(3-fluorophenyl)-1,2,3,5,6,7-hexahydropyrido[3,2,1-ij]quinolin-9-ylcarbamate]	98	–	–
CCCOC(=O)Nc1cc2c3c(c1)[C@@](C)(c1ccccc1)CCN3CC[C@@]2(C)c1ccccc1 [Compound 355, Propyl (1R,7S)-1,7-dimethyl-1,7-diphenyl-1,2,3,5,6,7-hexahydropyrido[3,2,1-ij]quinolin-9-ylcarbamate]	98	316	–
O=C(Nc1cc2c3c(c1)C(c1ccccc1)CCN3CCC2c1ccccc1)OCCF (stereo not shown) [Compound 095, 2-fluoroethyl 1,7-diphenyl-1,2,3,5,6,7-hexahydropyrido[3,2,1-ij]quinolin-9-ylcarbamate]	102	–	–
CCOC(=O)Nc1cc2c3c(c1)[C@](C)(c1ccccc1)CCN3CC[C@@]2(C)c1ccccc1 [Compound 941, Ethyl (1S,7S)-1,7-dimethyl-1,7-diphenyl-1,2,3,5,6,7-hexahydropyrido[3,2,1-ij]quinolin-9-ylcarbamate]	100	–	13
